In ChEMBL document CHEMBL5113453, “Design, synthesis, and biological evaluation of a new series of pyrazole derivatives: Discovery of potent and selective JNK3 kinase inhibitors” (Bioorg Med Chem, 2022):

Legend:
UO-31 = test: Antiproliferative activity against human UO-31 cells measured after 48 hrs by SRB assay; type: functional, cell-based; conditions: for IC50: UO-31, 48 h; for TGI: UO-31, time 48 hrs
ACHN = test: Antiproliferative activity against human ACHN cells measured after 48 hrs by SRB assay; type: functional, cell-based; conditions: for IC50: 48 h; for TGI: time 48 hrs
HCT-116 = test: Antiproliferative activity against human HCT-116 cells measured after 48 hrs by SRB assay; type: functional, cell-based; conditions: for IC50: HCT-116, 48 h; for TGI: HCT-116, time 48 hrs
Malme-3M = test: Antiproliferative activity against human Malme-3M cells measured after 48 hrs by SRB assay; type: functional, cell-based; conditions: for IC50: 48 h; for TGI: time 48 hrs
HOP-62 = test: Antiproliferative activity against human HOP-62 cells measured after 48 hrs by SRB assay; type: functional, cell-based; conditions: for IC50: HOP-62, 48 h; for TGI: HOP-62, time 48 hrs
EKVX = test: Antiproliferative activity against human EKVX cells measured after 48 hrs by SRB assay; type: functional, cell-based; conditions: for IC50: 48 h; for TGI: time 48 hrs
HCT-15 = test: Antiproliferative activity against human HCT-15 cells measured after 48 hrs by SRB assay; type: functional, cell-based; conditions: for IC50: HCT-15, 48 h; for TGI: HCT-15, time 48 hrs
SN12C = test: Antiproliferative activity against human SN12C cells measured after 48 hrs by SRB assay; type: functional, cell-based; conditions: for IC50: 48 h; for TGI: time 48 hrs
BT-549 = test: Antiproliferative activity against human BT-549 cells measured after 48 hrs by SRB assay; type: functional, cell-based; conditions: for IC50: BT-549, 48 h; for TGI: BT-549, time 48 hrs
SF-295 = test: Antiproliferative activity against human SF-295 cells measured after 48 hrs by SRB assay; type: functional, cell-based; conditions: for IC50: SF-295, 48 h; for TGI: SF-295, time 48 hrs
NCI-H322M = test: Antiproliferative activity against human NCI-H322M cells measured after 48 hrs by SRB assay; type: functional, cell-based; conditions: for IC50: 48 h; for TGI: time 48 hrs
RXF 393 = test: Antiproliferative activity against human RXF 393 cells measured after 48 hrs by SRB assay; type: functional, cell-based; conditions: for IC50: RXF 393, 48 h; for TGI: RXF 393, time 48 hrs
UACC-257 = test: Antiproliferative activity against human UACC-257 cells measured after 48 hrs by SRB assay; type: functional, cell-based; conditions: for IC50: UACC-257, 48 h; for TGI: UACC-257, time 48 hrs
DU-145 = test: Antiproliferative activity against human DU-145 cells measured after 48 hrs by SRB assay; type: functional, cell-based; conditions: for IC50: DU-145, 48 h; for TGI: DU-145, time 48 hrs
OVCAR-5 = test: Antiproliferative activity against human OVCAR-5 cells measured after 48 hrs by SRB assay; type: functional, cell-based; conditions: for IC50: OVCAR-5, 48 h; for TGI: OVCAR-5, time 48 hrs
A549 = test: Antiproliferative activity against human A549 cells measured after 48 hrs by SRB assay; type: functional, cell-based; conditions: for IC50: A549, 48 h; for TGI: A549, time 48 hrs
HCC 2998 = test: Antiproliferative activity against human HCC 2998 cells measured after 48 hrs by SRB assay; type: functional, cell-based; conditions: for IC50: HCC 2998, 48 h; for TGI: HCC 2998, time 48 hrs
SK-MEL-2 = test: Antiproliferative activity against human SK-MEL-2 cells measured after 48 hrs by SRB assay; type: functional, cell-based; conditions: for IC50: SK-MEL-2, 48 h; for TGI: SK-MEL-2, time 48 hrs
SF-268 = test: Antiproliferative activity against human SF-268 cells measured after 48 hrs by SRB assay; type: functional, cell-based; conditions: for IC50: SF-268, 48 h; for TGI: SF-268, time 48 hrs
NCI-H23 = test: Antiproliferative activity against human NCI-H23 cells measured after 48 hrs by SRB assay; type: functional, cell-based; conditions: for IC50: NCI-H23, 48 h; for TGI: NCI-H23, time 48 hrs
SK-OV-3 = test: Antiproliferative activity against human SK-OV-3 cells measured after 48 hrs by SRB assay; type: functional, cell-based; conditions: for IC50: SK-OV-3, 48 h; for TGI: SK-OV-3, time 48 hrs
MOLT-4 = test: Antiproliferative activity against human MOLT-4 cells measured after 48 hrs by SRB assay; type: functional, cell-based; conditions: for IC50: MOLT-4, 48 h; for TGI: MOLT-4, time 48 hrs
OVCAR-8 = test: Antiproliferative activity against human OVCAR-8 cells measured after 48 hrs by SRB assay; type: functional, cell-based; conditions: for IC50: OVCAR-8, 48 h; for TGI: OVCAR-8, time 48 hrs
MDA-MB-468 = test: Antiproliferative activity against human MDA-MB-468 cells measured after 48 hrs by SRB assay; type: functional, cell-based
TK-10 = test: Antiproliferative activity against human TK-10 cells measured after 48 hrs by SRB assay; type: functional, cell-based; conditions: for IC50: TK-10, 48 h; for TGI: TK-10, time 48 hrs
HT-29 = test: Antiproliferative activity against human HT-29 cells measured after 48 hrs by SRB assay; type: functional, cell-based; conditions: for IC50: HT-29, 48 h; for TGI: HT-29, time 48 hrs
SK-MEL-5 = test: Antiproliferative activity against human SK-MEL-5 cells measured after 48 hrs by SRB assay; type: functional, cell-based; conditions: for IC50: SK-MEL-5, 48 h; for TGI: SK-MEL-5, time 48 hrs
K562 = test: Antiproliferative activity against human K562 cells measured after 48 hrs by SRB assay; type: functional, cell-based; conditions: for IC50: K562, 48 h; for TGI: K562, time 48 hrs
SNB-19 = test: Antiproliferative activity against human SNB-19 cells measured after 48 hrs by SRB assay; type: functional, cell-based; conditions: for IC50: SNB-19, 48 h; for TGI: SNB-19, time 48 hrs
SR = test: Antiproliferative activity against human SR cells measured after 48 hrs by SRB assay; type: functional, cell-based; conditions: for IC50: 48 h; for TGI: time 48 hrs
WI-38 = test: Antiproliferative activity against human WI-38 cells measured by MTT assay; type: functional, cell-based
SK-MEL-28 = test: Antiproliferative activity against human SK-MEL-28 cells measured after 48 hrs by SRB assay; type: functional, cell-based; conditions: for IC50: SK-MEL-28, 48 h; for TGI: SK-MEL-28, time 48 hrs
[1] = biological target: T1, Mitogen-activated protein kinase 10 (Homo sapiens, UniProt P53779); test: Inhibition of JNK3 (unknown origin) at 1 uM relative to control
[2] = biological target: T1, Mitogen-activated protein kinase 10; test: Inhibition of JNK3 (unknown origin)
HL-60(TB) = test: Antiproliferative activity against human HL-60(TB) cells measured after 48 hrs by SRB assay; type: functional, cell-based; conditions: for IC50: HL-60, 48 h; for TGI: HL-60, time 48 hrs
UACC-62 = test: Antiproliferative activity against human UACC-62 cells measured after 48 hrs by SRB assay; type: functional, cell-based; conditions: for IC50: UACC-62, 48 h; for TGI: UACC-62, time 48 hrs
SF-539 = test: Antiproliferative activity against human SF-539 cells measured after 48 hrs by SRB assay; type: functional, cell-based; conditions: for IC50: SF-539, 48 h; for TGI: SF-539, time 48 hrs
SW-620 = test: Antiproliferative activity against human SW-620 cells measured after 48 hrs by SRB assay; type: functional, cell-based; conditions: for IC50: SW-620, 48 h; for TGI: SW-620, time 48 hrs
SNB-75 = test: Antiproliferative activity against human SNB-75 cells measured after 48 hrs by SRB assay; type: functional, cell-based; conditions: for IC50: SNB-75, 48 h; for TGI: SNB-75, time 48 hrs

T1 sequence (P53779 whole entry): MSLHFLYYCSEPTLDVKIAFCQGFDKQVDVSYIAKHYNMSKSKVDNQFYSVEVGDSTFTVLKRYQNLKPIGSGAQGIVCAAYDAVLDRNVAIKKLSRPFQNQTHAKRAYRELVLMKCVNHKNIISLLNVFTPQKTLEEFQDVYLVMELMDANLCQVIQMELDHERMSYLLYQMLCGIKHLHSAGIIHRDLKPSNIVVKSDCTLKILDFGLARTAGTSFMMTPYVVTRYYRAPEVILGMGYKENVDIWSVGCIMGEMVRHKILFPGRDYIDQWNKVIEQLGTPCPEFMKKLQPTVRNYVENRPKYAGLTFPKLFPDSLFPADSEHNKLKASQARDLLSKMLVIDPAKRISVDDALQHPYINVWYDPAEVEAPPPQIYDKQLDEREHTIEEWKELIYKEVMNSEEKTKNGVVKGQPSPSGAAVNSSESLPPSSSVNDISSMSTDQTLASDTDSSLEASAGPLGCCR

## COc1cccc(-c2nn(-c3ccccc3)cc2-c2ccnc(NCCCNC(=O)Nc3ccc(F)cc3)c2)c1
UO-31
  IC50: 5.1 µM
  TGI: > 37 µM
ACHN
  IC50: 10.6 µM
  TGI: > 37 µM
HCT-116
  IC50: 5.7 µM
  TGI: 17 µM
Malme-3M
  IC50: 5.45 µM
  TGI: 10.6 µM
HOP-62
  IC50: 14.7 µM
  TGI: > 37 µM
EKVX
  IC50: 9.63 µM
  TGI: > 37 µM
HCT-15
  IC50: 7.64 µM
  TGI: > 37 µM
SN12C
  IC50: 9.83 µM
  TGI: > 37 µM
BT-549
  IC50: 6.24 µM
  TGI: 20.3 µM
SF-295
  IC50: 7.16 µM
  TGI: 21.7 µM
NCI-H322M
  IC50: 9.58 µM
  TGI: > 37 µM
RXF 393
  IC50: 6.02 µM
  TGI: 28.6 µM
UACC-257
  IC50: 7.05 µM
  TGI: 16.9 µM
DU-145
  IC50: 14 µM
  TGI: > 37 µM
OVCAR-5
  IC50: 11.2 µM
  TGI: > 37 µM
A549
  IC50: 9.95 µM
  TGI: > 37 µM
HCC 2998
  IC50: 7.38 µM
  TGI: 20 µM
SK-MEL-2
  IC50: 6.3 µM
  TGI: 12.6 µM
SF-268
  IC50: 7.08 µM
  TGI: 30 µM
NCI-H23
  IC50: 10.1 µM
  TGI: > 37 µM
SK-OV-3
  IC50: 10.8 µM
  TGI: > 37 µM
MOLT-4
  IC50: 3.94 µM
  TGI: 19 µM
OVCAR-8
  IC50: 10.6 µM
  TGI: > 37 µM
MDA-MB-468; MDA-MB-468, 48 h
  IC50: 4.83 µM
MDA-MB-468; MDA-MB-468, time 48 hrs
  TGI: 13 µM
TK-10
  IC50: 21.2 µM
  TGI: > 37 µM
HT-29
  IC50: 7.17 µM
  TGI: 18.2 µM
SK-MEL-5
  IC50: 5.64 µM
  TGI: 10.8 µM
K562
  IC50: 2.96 µM
  TGI: > 37 µM
SNB-19
  IC50: 12.1 µM
  TGI: > 37 µM
SR
  IC50: 7.7 µM
  TGI: > 37 µM
WI-38
  IC50: > 20 µM
SK-MEL-28
  IC50: 6.57 µM
  TGI: 15.5 µM
[1]
  inhibition: 3%
[2]
  IC50: > 1 µM
HL-60(TB)
  IC50: 3.77 µM
  TGI: 13.7 µM
UACC-62
  IC50: 7.57 µM
  TGI: 24.2 µM
SF-539
  IC50: 6.34 µM
  TGI: 13.4 µM
SW-620
  IC50: 8.02 µM
  TGI: > 37 µM
SNB-75
  IC50: 4.18 µM
  TGI: 22.7 µM

## O=C1c2ccccc2-c2n[nH]c3cccc1c23
UO-31
  IC50: 10.5 µM
  TGI: > 100 µM
ACHN
  IC50: 6.64 µM
  TGI: > 100 µM
HCT-116
  IC50: 44.6 µM
  TGI: > 100 µM
Malme-3M
  IC50: 16.4 µM
  TGI: 58.9 µM
HOP-62
  IC50: 69.3 µM
  TGI: > 100 µM
EKVX
  IC50: 20 µM
  TGI: > 100 µM
HCT-15
  IC50: 8.04 µM
  TGI: > 100 µM
SN12C
  IC50: 14.8 µM
  TGI: > 100 µM
BT-549
  IC50: 30.8 µM
  TGI: > 100 µM
SF-295
  IC50: 22.5 µM
  TGI: 86.3 µM
NCI-H322M
  IC50: 24.9 µM
  TGI: > 100 µM
RXF 393
  IC50: 20.8 µM
  TGI: > 100 µM
UACC-257
  IC50: 29.5 µM
  TGI: > 100 µM
DU-145
  IC50: 28.2 µM
  TGI: > 100 µM
OVCAR-5
  IC50: 24.4 µM
  TGI: 85.5 µM
A549
  IC50: 14.9 µM
  TGI: > 100 µM
HCC 2998
  IC50: 9.62 µM
  TGI: 54.6 µM
SK-MEL-2
  IC50: 29 µM
  TGI: > 100 µM
SF-268
  IC50: 18.4 µM
  TGI: > 100 µM
NCI-H23
  IC50: 23.8 µM
  TGI: 58.1 µM
SK-OV-3
  IC50: 21 µM
  TGI: > 100 µM
MOLT-4
  IC50: 20.4 µM
  TGI: > 100 µM
OVCAR-8
  IC50: 22 µM
  TGI: > 100 µM
TK-10
  IC50: 5.93 µM
  TGI: 52 µM
HT-29
  IC50: 25.9 µM
  TGI: > 100 µM
SK-MEL-5
  IC50: 14.6 µM
  TGI: 37.5 µM
K562
  IC50: 48.6 µM
  TGI: > 100 µM
SNB-19
  IC50: 50 µM
  TGI: > 100 µM
SR
  IC50: 13.1 µM
  TGI: > 100 µM
WI-38
  IC50: > 20 µM
SK-MEL-28
  IC50: 37.5 µM
  TGI: > 100 µM
HL-60(TB)
  IC50: 42.1 µM
  TGI: > 100 µM
UACC-62
  IC50: 14.6 µM
  TGI: 86.5 µM
SF-539
  IC50: 32.2 µM
  TGI: > 100 µM
SW-620
  IC50: 10.9 µM
  TGI: > 100 µM
SNB-75
  IC50: 16.9 µM
  TGI: 97.5 µM
